{
  "source": "ChEMBL document CHEMBL6153174",
  "about": "“Design and Synthesis of Novel Deazapurine DNMT 1 Inhibitors with In Vivo Efficacy in DLBCL” (J Med Chem, 2025)",
  "key": {"[1]": {"experiment": "Subacute toxicity in Balb/C mouse assessed as effect on liver at 30 mg/kg, iv administered three times in a week for 2 weeks", "type": "organism-based", "conditions": "in vivo, 336 h"}, "TMD8 [2]": {"system": "TMD8", "experiment": "Induction of cell cycle arrest in human TMD8 cells assessed as accumulation of cells at G0-G1 phase at 0.25 uM incubated for 24 hrs by PI staining based flow cytometry analysis (reference value: 40.7%)", "type": "functional"}, "TMD8 [3]": {"system": "TMD8", "experiment": "Induction of cell cycle arrest in human TMD8 cells assessed as accumulation of cells at G2/M phase at 1.0 uM incubated for 24 hrs by PI staining based flow cytometry analysis (reference value: 20.4%)", "type": "functional"}, "[4]": {"molecular_target": "T1, DNA (cytosine-5)-methyltransferase 3A (Homo sapiens, UniProt Q9Y6K1)", "T1 sequence (Q9Y6K1 whole entry, looked up)": "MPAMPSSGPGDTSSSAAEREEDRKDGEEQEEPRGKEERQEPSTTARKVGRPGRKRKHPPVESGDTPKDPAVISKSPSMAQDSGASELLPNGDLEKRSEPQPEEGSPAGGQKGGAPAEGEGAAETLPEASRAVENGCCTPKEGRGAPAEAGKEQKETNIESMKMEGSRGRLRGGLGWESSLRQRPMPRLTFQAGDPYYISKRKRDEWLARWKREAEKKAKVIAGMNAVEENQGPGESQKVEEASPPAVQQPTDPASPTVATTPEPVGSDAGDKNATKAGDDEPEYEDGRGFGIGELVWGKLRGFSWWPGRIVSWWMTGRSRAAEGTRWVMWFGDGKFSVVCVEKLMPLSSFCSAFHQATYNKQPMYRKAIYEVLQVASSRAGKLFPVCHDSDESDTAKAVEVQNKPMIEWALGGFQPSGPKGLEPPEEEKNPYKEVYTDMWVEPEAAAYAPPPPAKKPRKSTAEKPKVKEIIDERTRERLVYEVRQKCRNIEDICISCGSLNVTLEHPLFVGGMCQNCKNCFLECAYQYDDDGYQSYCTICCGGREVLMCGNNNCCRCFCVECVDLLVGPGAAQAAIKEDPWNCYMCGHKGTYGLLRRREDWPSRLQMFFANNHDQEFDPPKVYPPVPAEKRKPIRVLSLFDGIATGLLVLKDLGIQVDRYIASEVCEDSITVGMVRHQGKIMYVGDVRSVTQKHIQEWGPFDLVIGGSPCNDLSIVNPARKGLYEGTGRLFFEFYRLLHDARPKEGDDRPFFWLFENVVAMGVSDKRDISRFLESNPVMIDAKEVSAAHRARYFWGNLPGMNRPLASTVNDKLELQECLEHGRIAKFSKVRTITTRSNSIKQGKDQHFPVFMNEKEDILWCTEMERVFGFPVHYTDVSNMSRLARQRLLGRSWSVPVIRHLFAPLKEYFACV", "experiment": "Inhibition of DNMT3A (unknown origin) at 5 uM preincubated for 15 mins followed by substrate and [3H-SAM] addition and measured after 60 mins by microbeta analysis relative to control", "conditions": "time 75.0 min"}, "[5]": {"experiment": "Cmax in Sprague-Dawley rat at 10 mg/kg, iv measured upto 24 hrs by LC/MS/MS analysis", "type": "ADME, organism-based", "conditions": "in vivo"}, "[6]": {"molecular_target": "T1, DNA (cytosine-5)-methyltransferase 3A", "experiment": "Inhibition of DNMT3A (unknown origin) preincubated for 15 mins followed by substrate and [3H-SAM] addition and measured after 60 mins by microbeta analysis"}, "TMD8 [7]": {"system": "TMD8", "experiment": "Induction of cell cycle arrest in human TMD8 cells assessed as accumulation of cells at G2/M phase at 0.5 uM incubated for 24 hrs by PI staining based flow cytometry analysis (reference value: 20.4%)", "type": "functional"}, "DOHH-2 [8]": {"system": "DOHH-2", "experiment": "Induction of cell cycle arrest in human DOHH-2 cells assessed as accumulation of cells at G2-M phase at 1.0 uM incubated for 24 hrs by PI staining based flow cytometry analysis (reference value: 27.8%)", "type": "functional"}, "[9]": {"experiment": "Terminal elimination half life in Sprague-Dawley rat at 10 mg/kg, iv measured upto 24 hrs by LC/MS/MS analysis", "type": "ADME, organism-based", "conditions": "in vivo, read-out: beta t1/2 (converted)"}, "[10]": {"molecular_target": "T2, DNA (cytosine-5)-methyltransferase 1 (Homo sapiens, UniProt P26358)", "T2 sequence (P26358 whole entry)": "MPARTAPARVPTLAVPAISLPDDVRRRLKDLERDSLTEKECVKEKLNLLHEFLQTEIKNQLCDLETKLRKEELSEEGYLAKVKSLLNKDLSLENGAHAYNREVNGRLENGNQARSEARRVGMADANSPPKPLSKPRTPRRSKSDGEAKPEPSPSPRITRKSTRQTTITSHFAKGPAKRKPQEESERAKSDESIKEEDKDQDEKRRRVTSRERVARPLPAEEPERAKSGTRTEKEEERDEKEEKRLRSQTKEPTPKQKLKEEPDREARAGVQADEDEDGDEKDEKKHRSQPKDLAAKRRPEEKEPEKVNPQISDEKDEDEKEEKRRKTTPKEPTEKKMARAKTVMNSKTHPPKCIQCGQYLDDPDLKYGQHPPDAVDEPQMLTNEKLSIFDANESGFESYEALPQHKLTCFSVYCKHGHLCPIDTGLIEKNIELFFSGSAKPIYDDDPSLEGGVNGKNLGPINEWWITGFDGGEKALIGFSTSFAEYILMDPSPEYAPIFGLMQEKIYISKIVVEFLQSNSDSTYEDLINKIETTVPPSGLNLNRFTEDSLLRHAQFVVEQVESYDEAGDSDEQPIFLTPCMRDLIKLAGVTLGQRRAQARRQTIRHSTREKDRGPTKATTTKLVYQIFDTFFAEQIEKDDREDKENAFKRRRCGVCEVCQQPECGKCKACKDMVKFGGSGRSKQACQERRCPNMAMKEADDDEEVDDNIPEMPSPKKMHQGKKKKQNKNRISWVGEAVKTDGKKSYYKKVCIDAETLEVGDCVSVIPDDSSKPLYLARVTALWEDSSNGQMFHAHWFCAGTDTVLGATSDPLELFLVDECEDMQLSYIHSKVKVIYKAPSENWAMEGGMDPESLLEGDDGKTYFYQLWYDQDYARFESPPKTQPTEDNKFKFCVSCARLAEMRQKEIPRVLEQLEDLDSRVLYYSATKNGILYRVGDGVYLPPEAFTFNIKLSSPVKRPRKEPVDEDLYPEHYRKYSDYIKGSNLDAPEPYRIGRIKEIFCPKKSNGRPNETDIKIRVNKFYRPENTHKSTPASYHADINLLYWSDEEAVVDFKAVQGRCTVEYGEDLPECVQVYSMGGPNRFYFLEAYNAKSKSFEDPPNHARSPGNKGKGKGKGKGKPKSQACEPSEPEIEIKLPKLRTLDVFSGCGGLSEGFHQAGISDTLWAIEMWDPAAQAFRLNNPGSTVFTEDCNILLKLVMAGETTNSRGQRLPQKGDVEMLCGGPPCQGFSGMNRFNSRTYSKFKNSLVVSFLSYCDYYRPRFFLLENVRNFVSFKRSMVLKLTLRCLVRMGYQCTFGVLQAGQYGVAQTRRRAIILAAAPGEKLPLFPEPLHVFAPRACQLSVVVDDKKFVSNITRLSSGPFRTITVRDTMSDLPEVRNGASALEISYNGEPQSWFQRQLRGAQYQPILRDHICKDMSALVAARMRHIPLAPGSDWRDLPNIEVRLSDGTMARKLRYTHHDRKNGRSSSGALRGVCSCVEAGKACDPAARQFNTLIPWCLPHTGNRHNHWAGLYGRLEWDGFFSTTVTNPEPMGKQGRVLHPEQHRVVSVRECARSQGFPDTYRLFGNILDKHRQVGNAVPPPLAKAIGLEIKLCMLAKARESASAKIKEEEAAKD", "experiment": "Inhibition of DNMT1 in human DOHH-2 cells assessed as inhibition of DNA methylation incubated for 48 hrs by Western blot analysis", "type": "cell-based", "conditions": "dose 10-1000 nM"}, "MOLM-13": {"system": "MOLM-13", "experiment": "Antiproliferative activity against human MOLM-13 cells assessed as inhibition of cell viability measured after 72 hrs by MTT assay", "type": "functional, cell-based", "conditions": "MOLM-13, 72 h"}, "DOHH-2 [11]": {"system": "DOHH-2", "experiment": "Induction of apoptosis in human DOHH-2 cells assessed as late apoptotic cells at 0.25 uM measured after 48 hrs by annexin-V/FITC and PI staining based flow cytometry analysis (reference value: 3.66%)", "type": "functional"}, "[12]": {"experiment": "Upregulation of BAX mRNA level in human DOHH-2 cells assessed as fold change at 300 nM measured after 6 days by PCR analysis", "type": "functional", "conditions": "time 6 day"}, "[13]": {"experiment": "Subacute toxicity in Balb/C mouse assessed as effect on red blood cells at 30 mg/kg, iv administered three times in a week for 2 weeks", "type": "organism-based", "conditions": "in vivo, 336 h"}, "[14]": {"molecular_target": "T2, DNA (cytosine-5)-methyltransferase 1", "experiment": "Inhibition of DNMT1 in human DOHH-2 cells assessed as inhibition of 5-methylcytosine level at 10 to 1000 nM incubated for 48 hrs by Western blot analysis", "type": "cell-based", "conditions": "dose 10-1000 nM"}, "TMD8 [15]": {"system": "TMD8", "experiment": "Antitumor activity against human TMD8 cells xenografted in mouse model assessed as inhibition of DNA methylation at 10 mg/kg, iv administered three times a week", "type": "functional, organism-based"}, "[16]": {"experiment": "Antitumor activity against human TMD8 cells harbouring TP53 mutant xenografted in mouse model assessed as tumor inhibition rate at 10 mg/kg, iv administered three times a week relative to control", "type": "functional", "set-up": "scale not given: the % may be the effect or the level left"}, "DOHH-2 [17]": {"system": "DOHH-2", "experiment": "Induction of apoptosis in human DOHH-2 cells assessed as early apoptotic cells measured after 48 hrs by annexin-V/FITC and PI staining based flow cytometry analysis", "type": "functional, cell-based", "conditions": "dose 0.25-5 µM"}, "HCT-116": {"system": "HCT-116", "experiment": "Antiproliferative activity against human HCT-116 cells assessed as inhibition of cell viability measured after 72 hrs by MTT assay", "type": "functional, cell-based", "conditions": "HCT-116, 72 h"}, "[18]": {"molecular_target": "T3, Histone-lysine N-methyltransferase EHMT2 (Homo sapiens) (UniProt Q96KQ7)", "T3 sequence (whole entry)": "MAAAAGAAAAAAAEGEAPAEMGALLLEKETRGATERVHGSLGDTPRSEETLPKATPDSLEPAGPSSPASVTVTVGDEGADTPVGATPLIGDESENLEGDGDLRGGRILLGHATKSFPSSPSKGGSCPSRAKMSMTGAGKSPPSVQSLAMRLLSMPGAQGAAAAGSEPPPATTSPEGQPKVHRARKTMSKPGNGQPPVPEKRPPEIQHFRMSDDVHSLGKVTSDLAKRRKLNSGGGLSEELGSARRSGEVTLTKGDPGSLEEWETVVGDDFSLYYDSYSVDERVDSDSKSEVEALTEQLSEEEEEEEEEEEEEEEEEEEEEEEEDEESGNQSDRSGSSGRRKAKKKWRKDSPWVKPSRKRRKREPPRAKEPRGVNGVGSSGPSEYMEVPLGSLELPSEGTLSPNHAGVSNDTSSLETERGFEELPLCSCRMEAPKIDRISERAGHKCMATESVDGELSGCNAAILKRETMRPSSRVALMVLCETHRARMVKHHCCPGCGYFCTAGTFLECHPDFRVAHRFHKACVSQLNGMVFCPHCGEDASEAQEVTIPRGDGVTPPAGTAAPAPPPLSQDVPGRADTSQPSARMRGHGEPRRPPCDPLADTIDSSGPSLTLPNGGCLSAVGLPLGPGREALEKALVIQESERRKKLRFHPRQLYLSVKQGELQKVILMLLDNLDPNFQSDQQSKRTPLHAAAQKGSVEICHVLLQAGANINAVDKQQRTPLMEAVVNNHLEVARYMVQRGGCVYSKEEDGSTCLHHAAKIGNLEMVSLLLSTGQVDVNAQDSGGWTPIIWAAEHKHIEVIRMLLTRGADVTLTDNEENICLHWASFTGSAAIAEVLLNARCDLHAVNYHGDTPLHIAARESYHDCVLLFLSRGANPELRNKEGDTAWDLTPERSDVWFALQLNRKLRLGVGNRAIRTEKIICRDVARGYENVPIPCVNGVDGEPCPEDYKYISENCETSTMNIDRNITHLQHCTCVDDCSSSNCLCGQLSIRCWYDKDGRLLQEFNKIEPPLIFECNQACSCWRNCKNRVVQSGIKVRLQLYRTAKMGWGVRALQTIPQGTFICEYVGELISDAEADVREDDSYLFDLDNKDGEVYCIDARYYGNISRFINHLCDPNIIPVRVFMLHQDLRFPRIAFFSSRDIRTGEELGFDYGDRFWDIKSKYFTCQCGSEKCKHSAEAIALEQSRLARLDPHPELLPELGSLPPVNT", "experiment": "Inhibition of G9a (unknown origin) at 5 uM preincubated for 15 mins followed by substrate and [3H-SAM] addition and measured after 60 mins by microbeta analysis relative to control", "conditions": "time 75.0 min"}, "DOHH-2 [19]": {"system": "DOHH-2", "experiment": "Induction of cell cycle arrest in human DOHH-2 cells assessed as accumulation of cells at G0-G1 phase incubated for 24 hrs by PI staining based flow cytometry analysis", "type": "functional", "conditions": "dose 0.25-1 µM"}, "TMD8 [20]": {"system": "TMD8", "experiment": "Induction of apoptosis in human TMD8 cells assessed as early apoptotic cells measured after 48 hrs by annexin-V/FITC and PI staining based flow cytometry analysis", "type": "functional, cell-based", "conditions": "dose 1-10 µM"}},
  "note": "The source made the active and inactive calls. The calls are words filed in the database; no cut-off is given here.",
  "data": [
    {"smiles": "CN1CCC(Nc2nc(-c3ccnc(F)c3)nc3c2ccn3CCCN2CCCC2)CC1", "values": [
      {"measurement": "Activity", "setting": "[1]", "value": "Non-toxic"},
      {"measurement": "Activity", "setting": "TMD8 [2]", "value": 37.9, "unit": "%"},
      {"measurement": "Activity", "setting": "TMD8 [3]", "value": 38.2, "unit": "%"},
      {"measurement": "inhibition", "setting": "[4]", "value": 11, "unit": "%"},
      {"measurement": "Cmax", "setting": "[5]", "value": 419, "unit": "ng/mL"},
      {"measurement": "IC50", "setting": "[6]", "value": 14.4, "unit": "µM"},
      {"measurement": "Activity", "setting": "TMD8 [7]", "value": 28.8, "unit": "%"},
      {"measurement": "Activity", "setting": "DOHH-2 [8]", "value": 32, "unit": "%"},
      {"measurement": "half-life", "setting": "[9]", "value": 10.8, "unit": "h"},
      {"measurement": "inhibition", "setting": "[10]", "value": "Active"},
      {"measurement": "IC50", "setting": "MOLM-13", "value": 1.06, "unit": "µM"},
      {"measurement": "Activity", "setting": "DOHH-2 [11]", "value": 7.58, "unit": "%"},
      {"measurement": "fold change (FC)", "setting": "[12]", "value": 1.93},
      {"measurement": "Activity", "setting": "[13]", "value": "Non-toxic"},
      {"measurement": "inhibition", "setting": "[14]", "value": "Active"},
      {"measurement": "Activity", "setting": "TMD8 [15]", "value": "Active"},
      {"measurement": "Activity", "setting": "[16]", "value": 58, "unit": "%"},
      {"measurement": "Activity", "setting": "DOHH-2 [17]", "value": "Dose-dependent-effect"},
      {"measurement": "IC50", "setting": "HCT-116", "value": 0.72, "unit": "µM"},
      {"measurement": "inhibition", "setting": "[18]", "value": 0.3, "unit": "%"},
      {"measurement": "Activity", "setting": "DOHH-2 [19]", "value": "Dose-dependent-effect"},
      {"measurement": "Activity", "setting": "TMD8 [20]", "value": "Dose-dependent-effect"}
    ]}
  ]
}
